The source of these data is patent publication US12281334B2, “Multi donor stem cell compositions and methods of making same” (Children's Hospital Medical Center, priority 2017, dated 2025).

“Also recorded” adds a separate entry of the source.

Data set [1] deals with pooled iPSCs (two fluorescently labeled donors and one puromycin resistant donor). Description: Donor ratio change by drug selection monitored by eDNA (drop out assay). It counts as cell-based, human. The note with it: puromycin containing media; fluorescence imaging and eDNA donor identification PCR. From the text: FIG. 22. Donor ratio change monitored by gDNA in the culture medium. To confirm the eDNA donor identification, Applicant monitored cell ratio change by drug selection. Two types of fluorescently labeled cells and puromycin resistant cells were used as a positive control.
(§1) In one aspect, a “Drop out assay” is disclosed. In this aspect, genomic DNA in environments (environmental DNA, or “eDNA”), a form of cell-free DNA (cfDNA), exists in the environment to determine biodiversity such as sea and soil. Detection of circulating tumor derived cfDNA is an evolving component of cancer precision medicine. […] Remarkably, when applied into pooled stem cell culture, quantitative detection of respective donor correlates with the cell ratio in culture. Therefore, Applicant concluded eDNA-based noninvasive donor identification method is effective decoding strategy for pooled stem cell culture by eDNA in culture supernatant. PCR of eDNA in culture supernatant can be carried out using donor-specific SNP primers. Each SNP primer may be standardized, and the donor ratio of the iPSC pool can be estimated using eDNA contained in the culture supernatant (see FIG. 19). As a result, the cell ratio may be successfully determined by PCR of eDNA in the medium (see FIG. 20). […] In order to confirm the sensitivity of eDNA donor identification, Applicant monitored cell ratio change by drug selection. […]

Data set [2] relates to fat-treated hepatocytes prepared from 11 iPSCs pool. Nature of the data set: Drop-out assay using induced hepatocytes treated with oleic acid and troglitazone. Particulars: eDNA based drop-out assay; oleic acid treated hepatocyte pool from eleven donors. The class given is cell-based, human. Here is the method:
FIG. 23. Drop-out assay using induced hepatocytes treated with oleic acid and troglitazone. Drug screening assays for fat accumulation and drug treatment were performed using hepatocytes prepared from iPSC pools.
as §1

For the compound `COc1ccc(C[C@H](N)C(=O)N[C@H]2[C@@H](O)[C@H](n3cnc4c(N(C)C)ncnc43)O[C@@H]2CO)cc1` [puromycin], the “fate of non-resistant iPSCs under drug selection” value in data set [1] is listed as “non-resistant iPSCs were disappeared on the second day of treatment; also recorded: two other donors died due to puromycin toxicity”. Take `Cc1c(C)c2c(c(C)c1O)CCC(C)(COc1ccc(CC3SC(=O)NC3=O)cc1)O2` (centres unmarked) [troglitazone]: in data set [2], the “sensitivity to drug induced hepatotoxicity, high fat accumulation risk donor cells vs healthy donor derived cells” value is “significantly more sensitive”.
